Experimental findings from paper PMC12828148, “Engineered cyclic peptide targeting ITGA5 disrupts tumor–stroma interaction to overcome desmoplasia and resistance in pancreatic ductal adenocarcinoma” (Acta Pharmaceutica Sinica. B, 2025) are described below.

The structures appear in SMILES notation. Peptide text beside a SMILES is read from it.

Holding throughout (assay type): cell-based, human
Experiment [1] relates to hPSC activated with TGF-β. Description: Inhibition of TGF-β-induced PSC activation (immunocytochemical staining, Western blot). As to conditions: 5 ng/mL TGF-β, 48 h, peptides at 20 and 50 μmol/L. The protocol:
secondary peroxidase labeled antibody was added and incubated for 1 h at RT. The HRP signal was developed using standard chemiluminescence kit and the signal was measured.
To evaluate the stability, 20 µmol/L peptide was incubated in 50% human plasma at biological temperature 37 °C for 1, 2, and 24 h. After incubation, plasma was precipitated by adding equal volume of 4% trichloroacetic acid (TCA) and rested on ice for 10 min. As control (or 0h), precipitation was performed immediately after mixing the peptide and plasma. Supernatant was collected after centrifugation at 13,300 × g and assessed using reversed phase high performance liquid chromatography (HPLC) with 5%, 95%, and 99.9% acetonitrile in de-gassed water with 0.1% trifluoroacetic acid as eluents. The remaining peptide was analyzed at a wavelength 280 nm.
(§1) Quantitative real-time PCR
To examine the effect of peptides on the gene expression of hPSC activation markers, cells were seeded into a 12 well plate at a seeding density of 50,000 cells/well. After overnight incubation, cells were starved for 24 h, then treated with human recombinant 5 ng/mL TGF-β (Peprotech, Hamburg, Germany) and […] peptide. After 24 h of the incubation, cells were lysed and total RNA was isolated using GenElute™ Mammalian Total RNA Miniprep Kit (Sigma–Aldrich) and the RNA concentration was measured using a NanoDrop® ND-1000 Spectrophotometer (Thermo Scientific, Waltham, USA). cDNA was synthesized with iScript™ cDNA Synthesis Kit (BioRad, Veenendaal, The Netherlands), and 10 ng cDNA was used for each PCR reaction. […] Quantitative real time PCR was performed with 2× SensiMix SYBR and Fluoroscein Kit (Bioline GmbH, Luckenwalde, Germany) using a BioRad CFX384 Real-Time PCR detection system (BioRad). […]
To evaluate the effect of peptides on the protein expression of hPSC activation markers, hPSCs were seeded into a 12 well plate at seeding density 50,000 cells/well. […] Proteins were detected with […]
medium. […] Images were analyzed using […]
secondary fluorescence-labeled antibody diluted in PBS. […]
Background: In western blotting, separated proteins are transferred to a membrane and probed.

The next experiment has as its system hPSCs activated by TGF-β. Description: Gene expression in TGF-β-activated hPSCs (qPCR, RT2 profiler PCR array). The method, then: as §1
To examine the effect of peptides on the gene expression of hPSC activation markers, cells were seeded into a 12 well plate at a seeding density of 50,000 cells/well. After overnight incubation, cells were starved for 24 h, then treated with human recombinant 5 ng/mL TGF-β (Peprotech, […]
After 24 h of the incubation, cells were lysed and total RNA was isolated using GenElute™ Mammalian Total RNA Miniprep Kit (Sigma–Aldrich) and the RNA concentration was measured using a NanoDrop® ND-1000 Spectrophotometer (Thermo Scientific, Waltham, USA). cDNA was synthesized with iScript™ cDNA Synthesis Kit (BioRad, Veenendaal, The Netherlands), and 10 ng cDNA was used for each PCR reaction. The real-time PCR primers (Table S1) were purchased from Sigma–Aldrich. Quantitative real time PCR was performed with 2× SensiMix SYBR and Fluoroscein Kit (Bioline GmbH, Luckenwalde, Germany) using a BioRad CFX384 Real-Time PCR detection system (BioRad). Gene expression levels were normalized to the expression of the house-keeping gene 18s rRNA. […]
The next day, the medium […]
was changed with 0% FBS Stellate Cell medium to starve hPSCs for 24 h. Subsequently, hPSCs were incubated with 5 ng/mL TGF-β1 and peptide for 48 h to examine the effect on protein expression of different markers such as α-SMA and collagen-1. Cells were lysed using 1× blue loading buffer containing 1× DTT reducing agent (Cell Signaling Technology) and homogenized using ultrasonication. Protein lysates were separated on a 4%–20% Tris-Glycine gel (Thermo Scientific) and then transferred onto a PVDF membrane (Thermo Scientific). […]
Background: Quantitative PCR measures a nucleic acid by following its amplification.

Experiment [2] has as its system PANC-1 homospheroids / PANC-1 + PSC heterospheroids. Description: Gene expression in 3D PANC-1 homospheroids and PANC-1 + PSC heterospheroids (qPCR). Particulars: treated Days 3 and 6, qPCR Day 7, n = 3.

As for `C[C@@H]1NC(=O)[C@H](CCCNC(=N)N)NC(=O)[C@H](Cc2ccc(O)cc2)NC(=O)[C@H](Cc2ccc(O)cc2)NC(=O)[C@H](CCCNC(=N)N)NC(=O)CNC(=O)[C@H](CCCCN)NC(=O)[C@H](Cc2ccc(O)cc2)NC(=O)[C@H]([C@@H](C)O)NC1=O` [cyAV3.3] (cyclo(ATYKGRYYR)), in experiment [1] (Western blot), the “inhibition of downstream signaling p-FAK” value is given as “more inhibition”. Also, the “inhibition of PSC activation by TGF-β1 (expression of α-SMA and collagen-1)” value in experiment [1] (immunostaining and Western blot) is “much stronger than AV3.3”. The “gene expression of FN and ITGA5” value with hPSCs activated by TGF-β (hPSCs activated by TGF-β, cyAV3.3 50 μmol/L, 24 h, qPCR) was “significantly inhibited the gene expression of FN and ITGA5”. Also, the “expression of 38 ECM and adhesion genes upregulated by TGF-β (heatmap)” value with hPSCs activated by TGF-β (hPSCs activated by TGF-β, cyAV3.3 50 μmol/L, RT2 Profiler PCR array) is listed as “downregulated all the upregulated genes”. Moreover, in the experiment on hPSCs activated by TGF-β (hPSCs, 5 ng/mL TGF-β, 24 h, qPCR), the “TGF-β-induced gene expression of ACTA2 and COL-1A1” value is “inhibited both ACTA2 and COL-1A1 concentration dependently”. For the same compound, the “gene expression levels related to resistance, stemness and ECM in heterospheroids” value in experiment [2] (PANC-1 + PSC heterospheroids) is on record as “significantly reduced”. For the same compound, the “gene expression in homospheroids” value in experiment [2] (PANC-1 homospheroids) is “some genes including ABCG1, KRAS, MMP2, MMP9 were inhibited”.
